Patent publication US20140377773A1, “Detection Marker for Anticancer Effects by Selenomethionine as an Inhibitor of Environmental Toxicity” (Dongguk University Industry-Academic Cooperation Foundation, priority 2013, published 2014)

Legend:
[1] = tested on: CRC; settings: patients who take selenium (Marshall 2008); cited from earlier work
[2] = tested on: ANXA2 (annexin A2); assay: Immunohistochemical analysis of colon tissue: ANXA2; assay type: in vivo, mouse
Experimental: (§1) Immunohistochemical analysis of the PHB, PNP, ANXA2 and CRP markers determined in Example 4 for the colon tissue samples obtained from groups 1 to 4 in Example 1 was performed.
(§2) Specifically, the colon paraffin sections obtained from the mice of groups 1 to 4 in […] were deparaffinized and rehydrated. In addition, endogenous peroxidases were quenched with methanol containing 0.3% H2O2 for 20 minutes. The sections were incubated with the primary antibodies anti-prohibitin (H-80) (sc-28259, Santa Cruz Biotechnology), anti-PNP (sc-135163, Santa Cruz Biotechnology), anti-CRP (H-90) (sc-30047, Santa Cruz Biotechnology), anti-annexin II (H-50) (sc-9061, Santa Cruz Biotechnology) and anti-8-OhdG (MOG-100P, JaICA) at 4° C. overnight. Then, the sections were incubated with biotin-conjugated secondary antibodies corresponding to the primary antibodies for 30 minutes, after which the sections were washed with PBS and incubated with streptavidin horseradish peroxidase (Vector Labs) for 30 minutes. The sections were washed with PBS, and then incubated with a DAB (3,3′-diaminobenzidine) substrate solution containing 1.8×10^−3% (v/v) of H2O2 for 10 minutes. […] The degree of staining of each of the markers in tumor cells developed in the stained tissues of each group was measured according to the method described in “Charafe-Jauffret, E., et al. (2004). […]

[3] = tested on: colon tissues; assay: 2-DE and nano-HPLC-ESI-QIT-MS proteomics of colon tissue; assay type: in vivo, mouse; settings: group 4 vs group 3
Experimental: In order to investigate the molecular target of SeMet (selenomethionine) having chemopreventive activity against colorectal cancer, the colon tissue samples obtained from the mice of groups 1 to 4 in Example 1 were analyzed using a 2-DE (2-dimensional electrophoresis) method.
Specifically, the colon tissues (excluding polyps) obtained from group 1 treated neither with SeMet (selenomethionine) nor AOM-DSS, group 2 treated with 15 ppm SeMet (selenomethionine) (Pharma Se Inc, USA), group 3 treated with AOM-DSS and group 4 treated with AOM-DSS after pretreatment with 15 ppm SeMet (selenomethionine) were washed with homogenization buffer A (50 mM Tris-HCl (pH7.5), 2 mM EDTA, 150 mM NaCl and 0.5 mM DTT) and then cut to small pieces. The pieces were homogenized in buffer (50 mM Tris-HCl (pH 7.5), 0.25 M sucrose, 5 mM magnesium acetate, 0.2 mM EDTA and 0.5 mM DTT) supplemented with Halt™ protease inhibitor cocktail (Thermo Fisher Scientific, Rockford, Ill.) on ice using a grinding kit (GE Healthcare Life Science, Uppsala, Sweden). Then, the solution was centrifuged at 13,000 rpm at 4° C. for 30 minutes, and 10% trichloroacetic acid was added to the supernatant to precipitate proteins. The collected precipitate was dissolved in rehydration buffer (8 M urea, 2% CHAPS, 50 mM DTT and 0.2% IPG buffer), and then, in order to perform 2D gel electrophoresis, the concentration of the proteins was adjusted with a BCA protein analysis kit (Thermo Fisher Scientific), and 200 μg of each protein was separated with Immobiline Dry Strip (pH 4-7, 18 cm, GE healthcare). 2D separation was performed on 12% acrylamide gel in Ettan Dalt II system (10 mA/gel; 1 hr, 40 mA/gel; >6 hr) (GE Healthcare Life Science, Uppsala, Sweden) for 7 hours. Then, the gel having proteins separated thereon stained using silver staining technology, after which the image of the gel was analyzed using Progenesis SameSpots software (version. 4.1, Nonlinear Dynamics, Newcastle, UK), and spots on the gel were detected. In analysis of the gel image, the gel was automatically aligned by measurement of alignment vectors using an analysis wizard, and master images of the experimental groups were made using Progenesis SameSpots software. The master images were used to normalize and quantify the spot volume and to analyze the proteins showing a difference in expression between the groups.
In order to investigate the molecular target of SeMet (selenomethionine) having chemopreventive activity against colorectal cancer, the colon tissue samples obtained from groups 1 to 4 in Example 1 were analyzed by mass spectrometry.
The cut spots were treated with trypsin, and protein identification was performed using a nano LC/MS system composed of a Surveyor HPLC system (Thermo Scientific, Waltham, Mass.) equipped with a nano-ESI source and an electrospray ionization (ESI)-quadrupole ion trap (QIT) mass spectrometer (LCQ Deca XP-Plus, Thermo Finnigan, San Jose, Calif., USA). In order to desalt and concentrate 10 μl of trypsin peptides, the peptide was loaded into a C18 trap column (i.d. 300 μm, length 5 mm, particle size 5 μm; LC Packings, Amsterdam, Netherlands) through an auto sampler at a flow rate of 20 μl/min. Then, the trapped peptides were allowed to flow backward and separated in a C18 reversed-phase capillary column (75 μm silica tube, length 150 mm, particle size 5 μm). The pump flow rate was split 1:100 for a column flow rate of […]. Mobile phase A was a solution of a mixture of 0.5% acetic acid and 0.02% formic acid in water, and mobile phase B was a solution of a mixture of 0.5% acetic acid and 0.02% formic acid in 80% acetonitrile. The samples were injected into the column and eluted by mobile phase B at a concentration gradient of 5-5 20 50 60 80 100% for 0-15-18-50-55-60-62 minutes, respectively. MS and MS/MS spectra were obtained using a capillary tube (temperature: 220° C., ESI voltage: 2.5 kV, and collision energy: 35%). […]

[4] = tested on: AOM-DSS mouse model; assay type: in vivo; settings: group 4 (15 ppm SeMet pretreatment + AOM-DSS) compared to group 3 (AOM-DSS)
Experimental: In order to examine the chemopreventive activity of SeMet (selenomethionine) against the development of colorectal cancer, the frequency and size of colon polyps in an inflammation-related colorectal cancer-induced mouse model according to the intake of SeMet (selenomethionine) were examined.
Specifically, an experiment was performed using forty eight 5-week-old ICR male mice (Lab Animal, Korea) divided into the following groups: group 1: treated with neither SeMet (selenomethionine) nor AOM-DSS; group 2: treated with 15 ppm SeMet (selenomethionine) (Pharma Se Inc, USA); group 3: treated with AOM-DSS; and group 4: pretreated with 15 ppm SeMet (selenomethionine) and then treated with AOM-DSS (FIGS. 1A and 1B).
AOM (azoxymethane) (Sigma-Aldrich Co, USA) that is a colorectal cancer-inducing substance was injected intraperitoneally (i.p.) into the mice at a dose of 10 mg/kg, and 1.5% (w/v) of dextran sodium sulfate (DSS) (MP Biomedicals, LLC, USA) that is a colitis-inducing substance was allowed to drink for one week after injection of AOM.
The mice of the four groups were euthanized with CO2 gas when reached 22 weeks of age, and the colons were extracted and observed.

[5] = tested on: 8-OHdG (8-hydroxy-2'-deoxyguanosine); assay: 8-OHdG oxidative stress marker staining of colon tissue; assay type: in vivo, mouse; settings: group pretreated with SeMet and treated with AOM-DSS compared to group treated with AOM-DSS
Experimental: (§3) Each of the colons extracted from the mice in Example 1 was fixed in 10% formalin, and then embedded in paraffin to make FFPE (paraffin-embedded) samples. Each of the FFPE samples was sectioned to a thickness of 10 μm and mounted on micro-slides (MUTO-GLASS, Japan), followed by drying at 37° C. overnight. Then, the paraffin sections were deparaffinized with xylene and concentration gradient alcohol. The deparaffinized tissue sections were stained with hematoxylin and eosin (H & E) (Sigma Aldrich) and an antibody (MOG-100P, JaICA) of 8-OHdG (8-hydroxy-2′-deoxyguanosine) known as an oxidative stress marker.

[6] = tested on: AOM-induced premalignant lesions; settings: AOM-DSS mouse models (Baines 2000); cited from earlier work
[7] = tested on: CRP (C-reactive protein); assay: Immunohistochemical analysis of colon tissue: CRP; assay type: in vivo, mouse
Experimental: as §1, §2

[8] = tested on: PHB (prohibitin); assay: Immunohistochemical analysis of colon tissue: PHB; assay type: in vivo, mouse; settings: immunohistochemistry
Experimental: as §1, §2

[9] = tested on: AOM-DSS-induced colorectal cancer; assay: Histopathological observation (H & E) of colon tissue of AOM-DSS mice; assay type: in vivo, mouse; settings: group 4 (SeMet pretreatment + AOM-DSS) compared to group 3 (AOM-DSS alone)
Experimental: as §3

[10] = tested on: PNP (purine nucleoside phosphorylase); assay: Immunohistochemical analysis of colon tissue: PNP; assay type: in vivo, mouse; settings: immunohistochemistry
Experimental: as §1, §2

[11] = pretreatment with SeMet + AOM-DSS vs colorectal cancer development, immunohistochemistry
[12] = administration of SeMet alone (group 2)
[13] = group 4 (SeMet pretreatment + AOM-DSS) vs AOM-DSS-induced colorectal cancer tissue

[Se] [selenium]
reduction of the risk of CRC [1]: about 50%

C[Se]CC[C@H](N)C(=O)O [SeMet, selenomethionine]
expression of ANXA2 ([2]; SeMet administered alone): did not change
expression of ANXA2 [2, 11]: decreased
Expression in SeMet/AOM-DSS ([3]; Alcohol dehydrogenase (Akr1a4), spot 50): Decreased
Expression in SeMet/AOM-DSS ([3]; Aldose reductase (Akr1b3), spot 49): Decreased
Expression in SeMet/AOM-DSS ([3]; Annexin 1 (Anxa1), spot 51): Decreased
Expression in SeMet/AOM-DSS ([3]; Annexin 2 (Anxa2), spot 48): Decreased
Expression in SeMet/AOM-DSS ([3]; Annexin 3 (Anxa3), spot 40): Increased
Expression in SeMet/AOM-DSS ([3]; Annexin 7 (Anxa7), spot 57): Increased
Expression in SeMet/AOM-DSS ([3]; Beta-actin (Actb), spot 39): Increased
Expression in SeMet/AOM-DSS ([3]; C-reactive protein (Crp1), spot 14): Decreased
Expression in SeMet/AOM-DSS ([3]; Cofilin 1 (Cfl1), spot 4): Decreased
Expression in SeMet/AOM-DSS ([3]; Cofilin 2 (Cfl2), spot 4): Decreased
Expression in SeMet/AOM-DSS ([3]; Destrin (Dstn), spot 5): Decreased
Expression in SeMet/AOM-DSS ([3]; Eukaryotic translation initiation 5A (Eif5a), spot 10): Increased
Expression in SeMet/AOM-DSS ([3]; Glutathione transferase omega 1 (Gsto1), spot 25): Decreased
Expression in SeMet/AOM-DSS ([3]; Hypoxanthine-guanine phosphoribosyltransferase 1 (Hprt1), spot 29): Decreased
Expression in SeMet/AOM-DSS ([3]; Inorganic pyrophosphatase 1 (Ppa1), spot 38): Increased
Expression in SeMet/AOM-DSS ([3]; Isoform 1 of Isocitrate dehydrogenase [NAD] subunit alpha (Idh3a), spot 41): Increased
Expression in SeMet/AOM-DSS ([3]; Isoform 1 of Tropomyosin alpha-1 chain (Tpm1), spot 43): Decreased
Expression in SeMet/AOM-DSS ([3]; L-lactate dehydrogenase A chain (Ldha), spot 47): Decreased
Expression in SeMet/AOM-DSS ([3]; Nucleoside diphosphate kinase B (Nme2), spot 8): Decreased
Expression in SeMet/AOM-DSS ([3]; Peroxiredoxin 1 (Prdx1), spot 16, 21): Decreased
Expression in SeMet/AOM-DSS ([3]; Peroxiredoxin 4 (Prdx4), spot 16, 21): Decreased
Expression in SeMet/AOM-DSS ([3]; Phosphoglycerate mutase 2 (Pgam2), spot 24): Decreased
Expression in SeMet/AOM-DSS ([3]; Prohibitin (Phb), spot 34): Increased
Expression in SeMet/AOM-DSS ([3]; Proteasome activator complex subunit 1 (Psme1), spot 32): Increased
Expression in SeMet/AOM-DSS ([3]; Proteasome subunit beta type 1 precursor (Psmb1), spot 18): Decreased
Expression in SeMet/AOM-DSS ([3]; Purine nucleoside phosphorylase (Pnp), spot 33): Increased
Expression in SeMet/AOM-DSS ([3]; S-formylglutathione hydrolase (Esd), spot 46): Decreased
Expression in SeMet/AOM-DSS ([3]; Transaldolase (Taldo1), spot 52): Decreased
Expression in SeMet/AOM-DSS ([3]; Triosephosphate isomerase 1 (Tpi1), spot 19, 23): Decreased
Expression in SeMet/AOM-DSS ([3]; Ubiquinol cytochrome c reductase 1 (Uqcrfs1), spot 20): Decreased
polyps in the colon [4]: significantly decreased
8-OHdG in colon tissue [5]: decreased
development of AOM-induced premalignant lesions [6]: reduces
expression of CRP ([7]; SeMet administered alone): did not change
expression of CRP [7, 11]: decreased
expression of PHB [8, 12]: increased
expression of PHB [8, 13]: increased again
dysplasia and neoplastic lesions [9]: decreases
expression of PNP [10, 12]: increased
expression of PNP [10, 13]: increased again
